Measurements from patent US10172905B1, “Treatment of protein degradation disorders” (President and Fellows of Harvard College, priority 2005, dated 2019).
“Also recorded” adds a separate entry of the source.

Experiments:
MM cell lines = test: MTT growth inhibition / cytotoxicity assay in MM cell lines; format: cell-based, human; conditions: for growth inhibitory / cytotoxic effect as single agent: MM cell lines, MTT and 3H-thymidine uptake
Description: The inhibitory effect of bortezomib and/or tubacin on MM cell growth was assessed by measuring 3-(4,5-dimethylthiazol-2-yl)-2,5-diphenyl tetrazolium bromide (MTT) dye absorbance, as described previously (33). […] All experiments were performed in quadruplicate.
These cells were treated with tubacin (1.25-20 μM) for 48 h (FIG. 2A) and 72 h (FIG. 2B), and cytotoxicity was assessed by MTT assay, as describe.

[1] = system: polyubiquitinated proteins; test: Western blotting with anti-Ub Ab; format: cell-based, human; conditions: tubacin alone
Description: Cells cultured with tubacin and/or bortezomib were harvested; washed, and lysed using lysis buffer: 50 mM Tris-HCl (pH 7.4), 150 mM NaCl, 1% NP-40, 5 mM EDTA, 5 mM NaF, 1 mM Na3VO4, 1 mM PMSF, 5 μg/ml leupeptine, and 5 μg/ml aprotinin. Whole cell lysates were subjected to SDS-PAGE, transferred to nitrocellulose membrane (Bio-Rad Laboratories, Hercules, Calif.), and immunoblotted with specific Abs (31). Western blotting was done using anti-HDAC6, acetylated lysine, acetylated histone H3, acetylated histone H4, ubiquitin (Ub), phospho-SAPK (JNK), caspase-8 caspase-9, caspase-3, and PARP Abs (Cell Signaling, Beverly, Mass.); with anti-α-tubulin Ab (Santa Cruz Biotechnology, Santa Cruz, Calif.); as well as with anti-dynein Ab (Sigma, Saint Louis, Mo.). For immunoprecipitation, whole cell lysates were incubated with anti-Ub or dynein Abs overnight at 4° C., and then incubated with protein A/G PLUS-Agarose (Santa Cruz Biotechnology) for 2 h at 4° C., as in our prior study (31). Immunoprecipitates were then subjected to Western blotting for detection of HDAC6 and dynein.

[2] = system: tubulin acetylation versus lysine acetylation; test: Immunofluorescence assay for acetylated tubulin versus acetylated lysine; format: cell-based
Excerpt: The present invention provides an immunofluorescence-based assay for identifying test agents with HDAC and/or TDAC inhibitory activity. The inventive assay is based on the use of specific antibodies for acetylated tubulin and acetylated lysine (i.e., a marker for acetylated histones). […] As described above, any type of agent, including small molecules, polymers, biomolecules, proteins, peptides, polynucleotides, etc., may be screened using the inventive assay. In certain embodiments, small molecules are screened. In certain particular embodiments, the small molecules are tubacin-like or are tubacin derivatives. In certain embodiments, the small molecules are compounds of the present invention. The test agents may also be small molecules purchased, prepared through traditional synthetic techniques, prepared through combinatorial chemistry techniques, or obtained from historical chemical collections. In certain embodiments, the test agents are biomolecules. In other embodiments, the test agents are proteins or peptides. In yet other embodiments, the test agents are polynucleotides. In certain embodiments, the test agents are polymers.
The assay involves contacting cells with a specific concentration of the test agent under specific conditions. […] There particular parameters may be determined by the operator or scientist conducting the assay as would be appreciated by one of skill in this art. After a determined time of incubation with the test compound, the cells are treated with a first primary antibody directed against acetylated tubulin and a second primary antibody directed against acetylated lysine. […] The signal from each of the secondary antibodies is measured and optionally quantitated to determine the amount of TDAC and HDAC inhibition under the specified conditions with the test agent. Optionally, the extent of inhibition is determined relative to a control in which no test agent was added. In certain embodiments, the secondary antibody is left out and the primary antibodies are uniquely labeled for identification and optionally quantification. […]

[3] = system: MM.1S cells and RPMI cells; test: Inhibition of protein catabolism in myeloma cells; format: cell-based; conditions: FIG. 18

Structure (SMILES): O=C(CCCCCCC(=O)Nc1ccc([C@H]2O[C@@H](CSc3nc(-c4ccccc4)c(-c4ccccc4)o3)C[C@@H](c3ccc(CO)cc3)O2)cc1)NO [tubacin]
- IC50 (MM cell lines; Homo sapiens, 72 h, drug-sensitive and -resistant MM cell lines): 5 to 20 µM
- growth inhibitory / cytotoxic effect as single agent (MM cell lines): marked anti-proliferative, proapoptotic effects; also recorded: dose-dependent growth inhibitory effect
- growth inhibitory / cytotoxic effect as single agent (MM cell lines; listed as Tubacin): cytotoxic
- effect of tubacin on bortezomib (Velcade)-induced cytotoxicity (MM cell lines; MM.1S and RPMI8226 cells, 24 h, MTT): synergistically enhances bortezomib-induced cytotoxicity; also recorded: Synergy; also recorded: potently sensitizes myeloma cells to subtoxic concentrations of bortezomib; also recorded: significantly (p<0.01) augmented cytotoxicity triggered by Velcade; also recorded: synergistic anti-tumor activity
- polyubiquitinated proteins ([1]; MM.1S cells): no significant change
- polyubiquitinated proteins ([1]; RPMI8226 cells): significantly accumulate; also recorded: increase in cellular ubiquitinated proteins
- specificity for tubulin acetylation versus lysine acetylation ([2]; A549 cells): specificity
- specificity for tubulin acetylation versus lysine acetylation ([2]; cells not given): specificity
- inhibition of protein catabolism [3]: potent inhibitors of protein catabolism
